“And” between values parts separate entries of the source, which are not always exact repeats. Identical values can stand only once.

One data set can be described thus: Solubility of the obtained compound in chloroform. It is filed as physicochemical. The following applies: solvent chloroform.
Consider `CC[Si](C#Cc1c2ccccc2cc2sc3c(sc4cc5ccccc5c(C#C[Si](CC)(CC)CC)c43)c12)(CC)CC` [Di-triethylsilylacetylene-substituted DNTT], for which the solubility in chloroform is 0.10 wt % and 0.13 wt %.

For `C[Si](C)(C)C#Cc1c2ccccc2cc2sc3c(sc4cc5ccccc5c(C#C[Si](C)(C)C)c43)c12` [Di-trimethylsilylacetylene-substituted DNTT], the solubility in chloroform was found to be 0.05 wt %.

Molecule `CCCCCCCCC#Cc1c2ccccc2cc2sc3c(sc4cc5ccccc5c(C#CCCCCCCCC)c43)c12` [di-1-dysine-substituted DNTT, Di-1-dysine-substituted dinaphthothienothiophene] had a solubility in chloroform of 2.3 wt %.

In the case of `CCCCCCCCCCCCC#Cc1c2ccccc2cc2sc3c(sc4cc5ccccc5c(C#CCCCCCCCCCCCC)c43)c12` [di-1-tetradysine-substituted DNTT, di-1-tetradecyne-substituted DNTT], the solubility in chloroform worked out at 6.5 wt %.

For the molecule `CCCCCCCCCCc1c2ccccc2cc2sc3c(sc4cc5ccccc5c(CCCCCCCCCC)c43)c12` [di-decane-substituted DNTT], the solubility in chloroform was 0.05 wt %.

“Di-triisopropylsilylacetylene-substituted dinaphthothienothiophene [di-TIPS-substituted DNTT]”: the solubility in chloroform stood at 0.2 wt %.

As to “Di-triisopropylsilylethane-substituted DNTT”, the solubility in chloroform was 0.51 wt %.

The data set is the same for the next values; noted with them: solvent chloroform; DNTT used as raw material.
Consider `c1ccc2cc3c(cc2c1)sc1c2cc4ccccc4cc2sc31` [DNTT, Dinaphthothienothiophene, reference compound], for which the “solubility in chloroform (in words)” value is “substantially not dissolved”.

Staying with this data set, now noted: solvent chloroform; listed as di-1-tetradesyne-substituted DNTT.
Molecule `CCCCCCCCCCCCC#Cc1c2ccccc2cc2sc3c(sc4cc5ccccc5c(C#CCCCCCCCCCCCC)c43)c12` [di-1-tetradysine-substituted DNTT, di-1-tetradecyne-substituted DNTT] yielded a solubility in chloroform of 1.67 wt %.

The record behind these values is patent US8829202B2, “Condensed polycyclic aromatic compound, aromatic polymer, and method for synthesizing aromatic compound” (Teijin Limited, priority 2011, dated 2014).
